Test results taken from patent publication US7709471B2, “Compounds” (AstraZeneca AB, priority 2006, dated 2010).

Experiments:
recombinant Plk1 = recombinant Plk1 (Homo sapiens, UniProt P53350); experiment: In Vitro Plk1 Enzyme Assay (SPA, GST-Cdc25C phosphorylation); format: biochemical; conditions: ATP 64 nM, 90 minutes, read-out: IC50 (Plk1 enzyme inhibition)
[1] = tested on: human colon tumour cell line HT29; experiment: Cellular Assay (phosphohistone H3 Ser10 mitotic marker, HT29); format: cell-based; conditions: HT-29, 24 h, HT29 cells, read-out: IC50 (cellular assay, phosphohistone H3)
Experimental: Chromosome condensation in mitosis is accompanied by phosphorylation of histone H3 on serine 10.
After 24 hours, cells were fixed in 3.7% (v/v) formaldehyde then permeabilised and blocked for 10 minutes in 100 μl 0.5% (v/v) Triton X-100, 1% (w/v) bovine serum albumin (BSA) in phosphate buffered saline (PBS). […] The raw assay data were analysed by non-linear regression analysis and used to determine an IC50 value for each compound.

recombinant Plk1, sequence (P53350 whole entry): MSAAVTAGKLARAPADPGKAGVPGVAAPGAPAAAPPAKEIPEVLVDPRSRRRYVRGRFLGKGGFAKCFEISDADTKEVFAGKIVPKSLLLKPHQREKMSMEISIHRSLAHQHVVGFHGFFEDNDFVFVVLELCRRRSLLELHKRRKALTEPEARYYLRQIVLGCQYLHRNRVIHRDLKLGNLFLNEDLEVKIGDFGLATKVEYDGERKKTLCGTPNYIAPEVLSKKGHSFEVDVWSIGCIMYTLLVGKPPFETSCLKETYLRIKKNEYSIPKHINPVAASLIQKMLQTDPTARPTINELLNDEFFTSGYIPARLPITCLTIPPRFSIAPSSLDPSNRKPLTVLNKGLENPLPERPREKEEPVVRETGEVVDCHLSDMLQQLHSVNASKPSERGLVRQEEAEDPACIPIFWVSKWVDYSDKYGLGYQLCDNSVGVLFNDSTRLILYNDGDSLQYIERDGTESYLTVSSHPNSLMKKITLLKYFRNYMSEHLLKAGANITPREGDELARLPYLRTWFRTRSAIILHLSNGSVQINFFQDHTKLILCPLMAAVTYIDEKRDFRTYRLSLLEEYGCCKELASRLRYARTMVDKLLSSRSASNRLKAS

SMILES	IC50 (recombinant Plk1) [nM]	IC50 [1] [nM]
CN1C(=O)CCN(C2CCCC2)c2nc(Nc3cccc(CO)c3)ncc21 [Example 173, 6-cyclopentyl-9-[[3-(hydroxymethyl)phenyl]amino]-2-methyl-2,6,8,10-tetrazabicyclo[5.4.0]undeca-8,10,12-trien-3-one]	< 1000	< 30000
CN1C(=O)CCN(C2CCCC2)c2nc(Nc3cccc(CCO)c3)ncc21 [Example 179, 6-cyclopentyl-9-[[3-(2-hydroxyethyl)phenyl]amino]-2-methyl-2,6,8,10-tetrazabicyclo[5.4.0]undeca-8,10,12-trien-3-one]	< 1000	< 30000
CN(C)CC(C)(C)CNC(=O)c1ccc(Nc2ncc3c(n2)N(c2ccccc2)CCC(=O)N3C)cc1 [Example 223, N-(3-dimethylamino-2,2-dimethyl-propyl)-4-[(2-methyl-3-oxo-6-phenyl-2,6,8,10-tetrazabicyclo[5.4.0]undeca-8,10,12-trien-9-yl)amino]benzamide]	< 1000	< 30000
COc1cc(C(=O)NCCC2CCCCN2C)ccc1Nc1ncc2c(n1)N(C1CCCC1)CCC(=O)N2C (stereo not drawn) [Example 85, 4-[(6-cyclopentyl-2-methyl-3-oxo-2,6,8,10-tetrazabicyclo[5.4.0]undeca-8,10,12-trien-9-yl)amino]-3-methoxy-N-[2-(1-methyl-2-piperidyl)ethyl]benzamide]	< 300	< 300
COc1cc(C(=O)NC2CCN(C)CC2)ccc1Nc1ncc2c(n1)N(c1ccccc1)CCC(=O)N2C [Example 221, 3-methoxy-4-[(2-methyl-3-oxo-6-phenyl-2,6,8,10-tetrazabicyclo[5.4.0]undeca-8,10,12-trien-9-yl)amino]-N-(1-methyl-4-piperidyl)benzamide]	< 300	< 30000
COc1cc(NCCN(C)C)ccc1Nc1ncc2c(n1)N(C1CCCC1)CCC(=O)N2C [Example 107, 6-cyclopentyl-9-[[4-(2-dimethylaminoethylamino)-2-methoxy-phenyl]amino]-2-methyl-2,6,8,10-tetrazabicyclo[5.4.0]undeca-8,10,12-trien-3-one]	< 1000	< 30000
COc1cc(C(=O)N[C@@H]2CC[C@H](C(=O)N(C)C)C2)ccc1Nc1ncc2c(n1)N(C1CCCC1)CCC(=O)N2C [Example 88, 4-[(6-cyclopentyl-2-methyl-3-oxo-2,6,8,10-tetrazabicyclo[5.4.0]undeca-8,10,12-trien-9-yl)amino]-N-[(1R,3S)-3-(dimethylcarbamoyl)cyclopentyl]-3-methoxy-benzamide]	< 100000	< 300
CCN1CCC(=O)N(C)c2cnc(Nc3ccc(C(=O)NC4CCN(C)CC4)cc3OC)nc21 [Example 210, 4-[(6-ethyl-2-methyl-3-oxo-2,6,8,10-tetrazabicyclo[5.4.0]undeca-7,9,11-trien-9-yl)amino]-3-methoxy-N-(1-methyl-4-piperidyl)benzamide]	< 300	< 300
COc1cc(C(=O)NC2CCN(C)CC2)ccc1Nc1ncc2c(n1)N(C1CCCCC1)CC1(CC1)C(=O)N2C [Example 430, 4-(9′-cyclohexyl-5′-methyl-6′-oxo-5′,6′,8′,9′-tetrahydrospiro[cyclopropane-1,7′-pyrimido[5,4-b][1,4]diazepine]-2′-ylamino)-3-methoxy-N-(1-methyl-4-piperidyl)benzamide]	< 300	< 300
COc1cc(C(=O)NCc2cccnc2)ccc1Nc1ncc2c(n1)N(C1CCCC1)CCC(=O)N2C [Example 76, 4-[(6-cyclopentyl-2-methyl-3-oxo-2,6,8,10-tetrazabicyclo[5.4.0]undeca-8,10,12-trien-9-yl)amino]-3-methoxy-N-(pyridin-3-ylmethyl)benzamide]	< 1000	< 300
CN1C(=O)CCN(C2CCCC2)c2nc(Nc3cccc(S(N)(=O)=O)c3)ncc21 [Example 170, 3-[(6-cyclopentyl-2-methyl-3-oxo-2,6,8,10-tetrazabicyclo[5.4.0]undeca-8,10,12-trien-9-yl)amino]benzenesulfonamide]	< 300	< 30000
CCOc1cc(C(=O)NC2CCN(C)CC2)ccc1Nc1ncc2c(n1)N(C(C)C)CCC(=O)N2C [Example 281, 3-ethoxy-4-[(6-methyl-5-oxo-2-propan-2-yl-2,6,9,11-tetrazabicyclo[5.4.0]undeca-7,9,11-trien-10-yl)amino]-N-(1-methyl-4-piperidyl)benzamide]	< 300	< 1000
COc1cc(N(C)C2CCN(C)CC2)ccc1Nc1ncc2c(n1)N(C1CCCC1)CCC(=O)N2C [Example 104, 6-cyclopentyl-9-[[2-methoxy-4-[methyl-(1-methyl-4-piperidyl)amino]phenyl]amino]-2-methyl-2,6,8,10-tetrazabicyclo[5.4.0]undeca-8,10,12-trien-3-one]	< 300	< 1000
COc1cc(C(=O)NC2CN3CCC2CC3)ccc1Nc1ncc2c(n1)N(C(C)C)CCC(=O)N2C (stereo not drawn) [Example 206, N-(1-azabicyclo[2.2.2]oct-8-yl)-3-methoxy-4-[(2-methyl-3-oxo-6-propan-2-yl-2,6,8,10-tetrazabicyclo[5.4.0]undeca-7,9,11-trien-9-yl)amino]benzamide]	< 300	< 300
COc1cc(C(=O)NCC(C)(C)N2CCCCC2)ccc1Nc1ncc2c(n1)N(C1CCCC1)CCC(=O)N2C [Example 75, 4-[(6-cyclopentyl-2-methyl-3-oxo-2,6,8,10-tetrazabicyclo[5.4.0]undeca-8,10,12-trien-9-yl)amino]-3-methoxy-N-[2-methyl-2-(1-piperidyl)propyl]benzamide]	< 300	< 300
COCCOc1cc(C(=O)NC2CCN(C)CC2)ccc1Nc1ncc2c(n1)N(C1CCCC1)CCC(=O)N2C [Example 195, 4-[(6-cyclopentyl-2-methyl-3-oxo-2,6,8,10-tetrazabicyclo[5.4.0]undeca-8,10,12-trien-9-yl)amino]-3-(2-methoxyethoxy)-N-(1-methyl-4-piperidyl)benzamide]	< 1000	< 30000
CCC1CN(C2CCCC2)c2nc(Nc3ccc(C(=O)NC4CCN(C)CC4)cc3OC)ncc2N(C)C1=O (single isomer, unassigned) [Example 236]	< 300	< 300
COc1cc(C(=O)NC2CCCCC2)ccc1Nc1ncc2c(n1)N(CCN1CCOCC1)CCC(=O)N2C [Example 277, N-cyclohexyl-3-methoxy-4-[[6-methyl-2-(2-morpholin-4-ylethyl)-5-oxo-2,6,9,11-tetrazabicyclo[5.4.0]undeca-7,9,11-trien-10-yl]amino]benzamide]	< 100000	< 30000
COc1cc(C(=O)N[C@@H]2CCNC2)ccc1Nc1ncc2c(n1)N(C1CCCC1)CCC(=O)N2C [Example 55, 4-[(6-cyclopentyl-2-methyl-3-oxo-2,6,8,10-tetrazabicyclo[5.4.0]undeca-8,10,12-trien-9-yl)amino]-3-methoxy-N-[(3R)-pyrrolidin-3-yl]benzamide]	< 300	< 300
COc1cc(C(=O)NCCCN2CCOCC2)ccc1Nc1ncc2c(n1)N(C1CCCC1)CCC(=O)N2C [Example 25, 4-[(6-cyclopentyl-2-methyl-3-oxo-2,6,8,10-tetrazabicyclo[5.4.0]undeca-8,10,12-trien-9-yl)amino]-3-methoxy-N-(3-morpholin-4-ylpropyl)benzamide]	< 300	< 300
CCN1CCC(NC(=O)c2ccc(Nc3ncc4c(n3)N(C3CCCC3)CC3(CC3)C(=O)N4C)c(Cl)c2)CC1 [Example 382, 3-chloro-4-(9′-cyclopentyl-5′-methyl-6′-oxo-5′,6′,8′,9′-tetrahydrospiro[cyclopropane-1,7′-pyrimido[5,4-b][1,4]diazepine]-2′-ylamino)-N-(1-ethylpiperidin-4-yl)benzamide]	< 300	< 300
CN1C(=O)CCN(C2CCCC2)c2nc(Nc3ccc(CNC(=O)c4ccccn4)cc3)ncc21 [Example 133, N-[[4-[(6-cyclopentyl-2-methyl-3-oxo-2,6,8,10-tetrazabicyclo[5.4.0]undeca-8,10,12-trien-9-yl)amino]phenyl]methyl]pyridine-2-carboxamide]	< 100000	< 30000
COc1cc(C(=O)N[C@H]2[C@@H]3CN(C)C[C@@H]32)ccc1Nc1ncc2c(n1)N(C1CCCC1)CCC(=O)N2C [Example 64, 4-[(6-cyclopentyl-2-methyl-3-oxo-2,6,8,10-tetrazabicyclo[5.4.0]undeca-8,10,12-trien-9-yl)amino]-3-methoxy-N-[(1S,5R)-3-methyl-3-azabicyclo[3.1.0]hex-6-yl]benzamide]	< 300	< 300
CN1C(=O)CCN(C2CCCC2)c2nc(Nc3ccc(S(N)(=O)=O)cc3)ncc21 [Example 123, 4-[(6-cyclopentyl-2-methyl-3-oxo-2,6,8,10-tetrazabicyclo[5.4.0]undeca-8,10,12-trien-9-yl)amino]benzenesulfonamide]	< 100000	< 30000
CC(=O)N1CCc2cc(Nc3ncc4c(n3)N(C3CCCC3)CCC(=O)N4C)ccc21 [Example 124, 9-[(1-acetyl-2,3-dihydroindol-5-yl)amino]-6-cyclopentyl-2-methyl-2,6,8,10-tetrazabicyclo[5.4.0]undeca-8,10,12-trien-3-one]	< 1000	< 30000
CCCNC(=O)c1ccc(Nc2ncc3c(n2)N(C2CCCC2)CCC(=O)N3C)c(OC)c1 [Example 93, 4-[(6-cyclopentyl-2-methyl-3-oxo-2,6,8,10-tetrazabicyclo[5.4.0]undeca-8,10,12-trien-9-yl)amino]-3-methoxy-N-propyl-benzamide]	< 1000	< 300
COCCN1CCN(c2ccc(Nc3ncc4c(n3)N(C3CCCC3)CCC(=O)N4C)c(OC)c2)CC1 [Example 105, 6-cyclopentyl-9-[[2-methoxy-4-[4-(2-methoxyethyl)piperazin-1-yl]phenyl]amino]-2-methyl-2,6,8,10-tetrazabicyclo[5.4.0]undeca-8,10,12-trien-3-one]	< 1000	< 30000
